Paper PMC6216040, “Repurposing of an old drug: In vitro and in vivo efficacies of buparvaquone against Echinococcus multilocularis” (International Journal for Parasitology: Drugs and Drug …, 2018)
Like-named read-outs stand apart in the source and are kept apart here.

System: E. multilocularis metacestodes
Test: PGI-assay: drug-induced damage on in vitro cultured metacestodes (Pathogen Box screening cascade and EC50)
Format: cell-based, Echinococcus multilocularis
Conditions: for cytotoxicity at 10 µM: Echinococcus multilocularis; for PGI release, % of Tx-100 control, average, 5d / PGI release, % of Tx-100 control, average, 12d: confirmatory screening at 10 µM in triplicates, values as % of Tx-100 control
[1] = 120 h, 10 µM, singlets, 5 days of incubation, read-out: PGI release, % of the Tx-100 control, 5d
[2] = 288 h, 10 µM, singlets, 12 days of incubation, read-out: PGI release, % of the Tx-100 control, 12d
[3] = 10 µM, singlets, 5 days of incubation
[4] = 10 µM, singlets, 12 days of incubation

Row | Compound | PGI release, % of the Tx-100 control, 5d [3] [%] | PGI release, % of the Tx-100 control, 12d [4] [%] | also measured
1 | O=C(C1CCCCC1)N1CC(=O)N2CCc3ccccc3C2C1 (stereo not drawn) [MMV002529, Praziquantel, reference compound] | – | – | cytotoxicity at 10 µM [1]: -0.87%; cytotoxicity at 10 µM [2]: -0.49%
2 | COc1cc(OC)cc(C(=O)NCC2Cc3cc(Cl)cc(-c4ccncc4)c3O2)c1 (stereo not drawn) [MMV007471] | 1.94 | 7.77 | –
3 | CC(C)(C)c1cc(C(=O)Nc2cccnc2)cc(C(=O)Nc2cccnc2)c1 [MMV020982] | 1.45 | 12.41 | –
4 | CS(=O)(=O)N1CCC(Cn2nc(Cc3cccc4ccccc34)c3c(N)ncnc32)CC1 [MMV676050] | 0.49 | 0.36 | –
5 | CCC(Sc1nc2ccccc2o1)C(=O)Nc1nccs1 (stereo not drawn) [MMV676383] | 0.61 | 4.85 | –
6 | Cc1ccc(NC(=O)c2cc(S(=O)(=O)NC(C)(C)C)ccc2C)nc1 [MMV020289] | -0.85 | -0.97 | –
7 | CC1COC(Cn2cncn2)(c2ccc(Oc3ccc(Cl)cc3)cc2Cl)O1 (stereo not drawn) [MMV688943, Difenoconazol] | -4.96 | -0.86 | –
8 | Nc1ncc(-c2cn[nH]c2)cc1-c1nc2cc(Cl)cnc2[nH]1 [MMV023370] | -2.33 | -3.72 | –
9 | Cc1cc(NC(=O)c2ccc(S(=O)(=O)N(Cc3ccccc3)C(C)C)cc2)no1 [MMV007133] | -0.95 | 0.46 | –
10 | COc1ccc2nccc(NC(=O)C3CCN(CCc4ccc(Cl)cc4)CC3)c2n1 [MMV688844] | -0.25 | -3.99 | –
11 | COc1ccc(-c2cnc3ccc(NCc4ccc(S(N)(=O)=O)cc4)nn23)cn1 [MMV010545] | -0.28 | -0.35 | –
12 | CCCCc1ccc(C(=O)Nc2nccc3ccccc23)nc1 [MMV687254] | -0.76 | -1.68 | –
13 | Nc1nccc2ccc(-c3ccc4nccn4c3)cc12 [MMV023233] | -0.34 | -0.36 | –
14 | Nc1ncnc2c1c(Cc1cccc3ccccc13)nn2CC1CCNCC1 [MMV676182] | 0.88 | -0.92 | –
15 | Cc1ccc2nc(C)c(-c3ccn(Cc4ccccc4)n3)n2c1 [MMV688939] | 15.20 | 102.25 | PGI release, % of Tx-100 control, average, 5d (5 days of incubation): 3.21%; PGI release, % of Tx-100 control, average, 12d (12 days of incubation): 3.18%
16 | CC(C)(C)c1cc(C(=O)N2CCN(c3nccnc3C#N)CC2)n(Cc2ccccc2)n1 [MMV023949] | -0.59 | -1.14 | –
17 | NC(=O)c1cc(Br)ccc1OCCOc1ccccc1 [MMV687243] | 1.02 | -1.47 | –
18 | COc1cccc(-c2nc3c(N4CCCC4)cccc3n2CC2CCCN2)n1 (stereo not drawn) [MMV687703] | 1.13 | -0.35 | –
19 | COc1ccc(-c2nnc3ccc(-c4cccc(C(C)C)c4)cn23)cc1OC [MMV688313] | -0.11 | -3.88 | –
20 | CNC(=O)c1nn(C)c2c1C(C)(C)Cc1cnc(Nc3ccc(N4CCN(C)CC4)cc3)nc1-2 [MMV676602] | -1.52 | 120.02 | PGI release, % of Tx-100 control, average, 5d (5 days of incubation): 0.52%; PGI release, % of Tx-100 control, average, 12d (12 days of incubation): 12.12%
21 | O=C(Nc1ccc(N2CCNCC2)nc1)c1oc(-c2ccccc2)nc1C(F)(F)F [MMV024937] | 14.66 | 18.16 | –
22 | CC(C)(C)C(O)C(Oc1ccc(-c2ccccc2)cc1)n1cncn1 (stereo not drawn) [MMV688942, Bitertanol] | – | – | cytotoxicity at 10 µM [1]: -0.93%; cytotoxicity at 10 µM [2]: 0.41%
23 | Cc1cccc(-c2nc(Nc3ccncn3)c3sccc3n2)n1 [MMV688122] | 0.14 | 95.49 | PGI release, % of Tx-100 control, average, 5d (5 days of incubation): -0.80%; PGI release, % of Tx-100 control, average, 12d (12 days of incubation): -0.86%
24 | Cn1ccnc1CNCCS(=O)(=O)c1cccc(Nc2ccc(-c3cccc(F)c3)cn2)c1 [MMV688466] | -0.60 | -2.11 | –
25 | CC(C)C(C(=O)Nc1ccc(S(=O)(=O)N(C)C)cc1)c1ccc(Cl)cc1 (stereo not drawn) [MMV020391] | -0.90 | -4.50 | –
26 | Clc1ccc(CN2CCN(C3=NCCN3)CC2)cc1Cl [MMV689060] | 0.33 | -1.23 | –

Row | Compound | PGI release, % of the Tx-100 control, 5d [3] [%] | PGI release, % of the Tx-100 control, 12d [4] [%] | also measured
27 | Cc1cc(C)n(-c2ccc(NC(=O)C3CCN(Cc4cnc(C)s4)CC3)cc2)n1 [MMV007625] | 0.65 | 25.58 | PGI release, % of Tx-100 control, average, 5d (5 days of incubation): -1.00%; PGI release, % of Tx-100 control, average, 12d (12 days of incubation): -1.56%
28 | COc1ccccc1C(C)NCC(=O)Nc1cc(C(F)(F)F)ccc1Cl (stereo not drawn) [MMV020321] | 0.0279 | 2.67 | –
29 | Clc1cccc(C(c2ccc(CN3CCNCC3)cc2)n2ccnc2)c1 (stereo not drawn) [MMV663250] | 0.31 | -0.31 | –
30 | CC(C(=O)N1CCCC1)N1CCN(S(=O)(=O)c2ccc(C(C)(C)C)cc2)CC1 (stereo not drawn) [MMV020291] | -0.20 | -0.67 | –
31 | COc1ccc(-c2cnc3ccc(N4CCCC4)nn23)cc1OC [MMV023985] | -0.66 | -1.01 | –
32 | CC1(C)OB(O)c2ccc(C3=NOC(c4cc(Cl)c(F)c(Cl)c4)(C(F)(F)F)C3)cc21 (stereo not drawn) [MMV687775] | 11.08 | -0.22 | –
33 | O=C(NCCc1ccn(-c2ccccc2)n1)C1CCCCC1 [MMV688795] | 0.14 | -0.21 | –
34 | CC(C)(C)OC(=O)N1CCN(c2cc(-c3ccc(Oc4ccccc4)cc3)n[nH]2)CC1 [MMV676057] | -3.83 | 2.21 | –
35 | O=C(NC1CCN(c2ccnc3ccccc23)C1)c1cccc(C(F)(F)F)c1 (stereo not drawn) [MMV023388] | -0.73 | -1.23 | –
36 | O=C(c1ccc(NCCO)cc1)C1C[C@H]1c1ccc(Cl)cc1 (stereo partly drawn) [MMV676877] | 0.56 | -0.18 | –
37 | CC(C)(C)OC(=O)N1CCN(c2nccc(-c3ccc(-c4ccc(Cl)cc4)s3)n2)CC1 [MMV688416] | -0.30 | -2.84 | –
38 | Cc1noc(C)c1C(=O)N1CCCC(c2[nH]c3c(C)cccc3c2-c2ccncc2)C1 (stereo not drawn) [MMV020623] | -0.37 | -4.10 | –
39 | CC(C)(C)c1ccc(N[C@@H]2CCCC[C@H]2NC(=O)c2ccco2)cc1 [MMV675969] | 1.02 | -2.49 | –
40 | Nc1ccc2ncnc(Nc3ccc(OCc4cccc(F)c4)c(Cl)c3)c2c1 [MMV688273] | -1.47 | -4.16 | –
41 | CCc1nn(C)c(C(=O)NCc2ccc(Oc3ccc(C)cc3)cc2)c1Cl [MMV688934, Tolfenpyrad] | – | – | cytotoxicity at 10 µM (120 h, read-out: PGI release, % of the Tx-100 control, 5d): -1.16%; cytotoxicity at 10 µM (288 h, read-out: PGI release, % of the Tx-100 control, 12d): 10.3%
42 | CS(=O)(=O)c1ccccc1C(=O)N(Cc1ccccc1)c1ccccc1 [MMV688798] | 13.11 | 63.28 | PGI release, % of Tx-100 control, average, 5d (5 days of incubation): -0.92%; PGI release, % of Tx-100 control, average, 12d (12 days of incubation): -1.65%
43 | Cc1ccc2[nH]c3c(NCCN(C)C)ncnc3c2c1 [MMV006372] | 0.48 | -0.11 | –
44 | O=C(N[C@H](Cc1ccccc1)C(=O)Nc1ccccc1N1CCOCC1)c1cccs1 [MMV688845] | 0.55 | 0.28 | –
45 | O=C1[C@@H](Oc2ccccc2)[C@@H](c2ccc(Cl)cc2)N1CCn1cnc2c(NCc3ccccc3)ncnc21 [MMV688352] | 2.57 | 3.05 | –
46 | COc1ccc(C2CC(c3cccs3)=NN2C(=O)c2ccco2)cc1OC (stereo not drawn) [MMV019234] | 0.82 | 6.10 | –
47 | Cc1ccccc1C(=O)N1NC(=Nc2ccccc2)SC1(C)C [MMV688771] | -0.49 | -1.69 | –
48 | CC[C@@H]([C@H](C)O)n1ncn(-c2ccc(N3CCN(c4ccc(OC[C@@H]5CO[C@@](Cn6cncn6)(c6ccc(F)cc6F)C5)cc4)CC3)cc2)c1=O [MMV688774, Posaconazole, reference compound] | – | – | cytotoxicity at 10 µM [1]: -0.69%; cytotoxicity at 10 µM [2]: -1.09%
49 | COc1ccc2nc(C)cc(OCC(=O)Nc3ccccc3OC)c2c1 [MMV687188] | 0.23 | 4.44 | –
50 | CC(=O)NC[C@H]1CN(c2ccc(-c3ccc(CNCc4cnn[nH]4)cc3)c(F)c2)C(=O)O1 [MMV688327, Radezolid, reference compound] | – | – | cytotoxicity at 10 µM [1]: -0.89%; cytotoxicity at 10 µM [2]: -1.52%
51 | Cn1c(=O)c2c(S(C)(=O)=O)snc2n(C)c1=O [MMV687251] | 5.41 | 6.23 | –
52 | CCS(=O)(=O)N(Cc1ccco1)Cc1cc2ccc(C)cc2[nH]c1=O [MMV676398] | -0.33 | 4.91 | –
